Experimental data as given in patent US20230143604A1, “QW DOSING OF GIP RECEPTOR AGONIST PEPTIDE COMPOUNDS AND USES THEREOF” (TAKEDA PHARMACEUTICAL COMPANY LIMITED, priority 2020, published 2023).
Starred links: 1 amine or outer side, 2 acyl side, 3 side chain; linkers in the order of their positions; H or OH if unused. Non-standard residues stand in square brackets, D forms with d. Residues, ends and D or L forms follow the SMILES beside them. Groups on a side chain read outwards from the residue. *: point of attachment. C20 diacid = O=C(O)CCCCCCCCCCCCCCCCCCC(=O)*; C18 diacid = O=C(O)CCCCCCCCCCCCCCCCC(=O)*; C17 diacid = O=C(O)CCCCCCCCCCCCCCCC(=O)*; γGlu = O=C(O)[C@H](CCC(=O)[*:2])N[*:1]; NMeY = CN[C@@H](Cc1ccc(O)cc1)C(=O)O; AEEA = NCCOCCOCC(=O)O; Aib = CC(C)(N)C(=O)O

Key:
[1] = Solubility in phosphate buffer pH 7.4
Summary of the method: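 3 mg of peptide treated with 100 μL portions of 200 mM phosphate buffer pH 7.4, sonicating/vortexing up to 1 min, with further buffer added until fully dissolved. Solubility then quantified by HPLC.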

[2] = Human plasma protein binding (PPB); type: in vitro ADME; conditions: both sexes, pH 7.4; fraction unbound; human plasma, 1000 nmol/L peptide, ultracentrifugation; read-out: Human PPB (FUplasma)
Method: Stock solutions: (1000 μM) of the peptides are prepared in DMSO.
Human plasma (mixed gender; containing K2-EDTA as anti-coagulant; pre-adjusted to pH 7.4—NB alternative species may be used) is spiked individually with each test peptide (1000 nmol/L), sampled for analysis and then incubated (n=4) at 37° C. in a water bath for 30 minutes. Following the incubation period, the plasma is sampled for analysis, then transferred to ultracentrifugation tubes and centrifuged (n=3) at […] and 4° C. for 3 hours, after which the supernatant is sampled for analysis. An additional aliquot of the supernatant is taken at the end of the centrifugation period to determine the total protein concentration. An aliquot of the incubated plasma will be stored at 4° C. for 3 hours and then sampled for analysis. At the point of sampling, all samples are matrix-matched, treated with ice-cold acetonitrile/methanol (4:1 (vfv)) containing internal standard, centrifuged al 2000 g and 4° C. for 10 minutes and stored prior to LC-MS/MS analysis. An appropriate positive control compound control will be incubated and centrifuged in parallel; control plasma is also centrifuged to generate samples for matrix-matching. Fraction unbound in plasma (Fuplasma) values is determined by comparison of the analyte response in plasma to the analyte response in the supernatant, determined via peak area response ratios.
The samples are analyzed by LC-MS/MS using a 6500 (or equivalent) triple quadrupole mass spectrometer (AB Sciex) coupled to an appropriate Liquid Chromatography (LC) system. Protein binding and stability values are determined via peak area ratios using multiple reaction monitoring (MRM) parameters following compound optimisation. Multiple reaction monitoring (MRM) is a highly sensitive method of targeted mass spectrometry (MS) that can be used to selectively detect and quantify peptides based on the screening of specified precursor peptide-to-fragment ion transitions.

[3] = Dog plasma protein binding (PPB); type: in vitro ADME; conditions: pH 7.4; fraction unbound; dog serum; read-out: Dog PPB (FUplasma)
Text: Dog PPB values presented below are obtained essentially as described for Human PPB samples, with the difference being that dog serum is used instead of human serum. Table 10 is provided with the values of (Fu,plasma) as fraction unbound expressed as a percentage compared to the percent bound. i.e. if the value is 0.0123, then the fraction unbound is […], which is 1.23% of the peptide is unbound and 98.77% is bound in plasma. Methods and analysis for performing the dog PPB protocol and results are the same as noted herein as for the Human PPB protocol and analysis.

CC[C@H](C)[C@H](NC(=O)[C@H](Cc1ccccc1)NC(=O)[C@@H](NC(=O)CNC(=O)[C@H](CCC(=O)O)NC(=O)C(C)(C)NC(=O)[C@H](Cc1ccc(O)cc1)NC)[C@@H](C)O)C(=O)N[C@@H](CO)C(=O)N[C@@H](CC(=O)O)C(=O)N[C@@H](Cc1ccc(O)cc1)C(=O)N[C@@H](CO)C(=O)N[C@H](C(=O)NC(C)(C)C(=O)N[C@@H](CC(C)C)C(=O)N[C@@H](CC(=O)O)C(=O)N[C@@H](CCCNC(=N)N)C(=O)NC(C)(C)C(=O)N[C@@H](C)C(=O)N[C@@H](CCC(N)=O)C(=O)NC(C)(C)C(=O)N[C@@H](CCCCNC(=O)COCCOCCNC(=O)COCCOCCNC(=O)CC[C@H](NC(=O)CC[C@H](NC(=O)CCCCCCCCCCCCCCCC(=O)O)C(=O)O)C(=O)O)C(=O)N[C@@H](Cc1ccccc1)C(=O)N[C@H](C(=O)N[C@@H](CC(N)=O)C(=O)N[C@@H](Cc1c[nH]c2ccccc12)C(=O)N[C@@H](CC(C)C)C(=O)N[C@@H](CC(C)C)C(=O)N[C@@H](C)C(=O)N[C@@H](CCC(N)=O)C(=O)N[C@@H](CCCNC(=N)N)C(=O)N1CCC[C@H]1C(=O)N[C@@H](CO)C(=O)N[C@@H](CO)C(=O)NCC(=O)N[C@@H](C)C(=O)N1CCC[C@H]1C(=O)N1CCC[C@H]1C(=O)N1CCC[C@H]1C(=O)N[C@@H](CO)C(N)=O)C(C)C)[C@@H](C)CC [Compound 13] (H-[NMeY][Aib]EGTFISDYSI[Aib]LDR[Aib]AQ[Aib]K([AEEA-AEEA-γGlu-γGlu-C17 diacid])FVNWLLAQRPSSGAPPPS-NH2)
solubility ([1]; pH 7.4, aqueous buffer, pH 7.4 Phosphate Buffer - Solubility, 200 mM Phosphate buffer pH 7.4): ≥ 30 mg/mL
solubility ([1]; pH 7.4, solubility in phosphate buffer at pH 7.4, 200 mM phosphate buffer pH 7.4): ≥ 15 mg/mL
fraction unbound at 30 min, 1000 nmol/L [2]: < 0.002
fraction unbound at 30 min, 1000 nmol/L [3]: < 0.002

CC[C@H](C)[C@H](NC(=O)[C@H](CO)NC(=O)[C@H](Cc1ccc(O)cc1)NC(=O)[C@H](CC(=O)O)NC(=O)[C@H](CO)NC(=O)[C@@H](NC(=O)[C@H](Cc1ccccc1)NC(=O)[C@@H](NC(=O)CNC(=O)[C@H](CCC(=O)O)NC(=O)C(C)(C)NC(=O)[C@H](Cc1ccc(O)cc1)NC)[C@@H](C)O)[C@@H](C)CC)C(=O)N[C@@H](C)C(=O)N[C@@H](CC(C)C)C(=O)N[C@@H](CC(=O)O)C(=O)N[C@@H](CCCNC(=N)N)C(=O)NC(C)(C)C(=O)N[C@@H](Cc1c[nH]cn1)C(=O)N[C@@H](CCC(N)=O)C(=O)NC(C)(C)C(=O)N[C@@H](CC(N)=O)C(=O)N[C@@H](Cc1ccccc1)C(=O)N[C@H](C(=O)N[C@@H](CC(N)=O)C(=O)N[C@@H](Cc1c[nH]c2ccccc12)C(=O)N[C@@H](CC(C)C)C(=O)N[C@@H](CC(C)C)C(=O)N[C@@H](C)C(=O)N[C@@H](CCCCNC(=O)COCCOCCNC(=O)COCCOCCNC(=O)CC[C@H](NC(=O)CC[C@H](NC(=O)CCCCCCCCCCCCCCCCC(=O)O)C(=O)O)C(=O)O)C(=O)N[C@@H](CCCNC(=N)N)C(N)=O)C(C)C [Compound 19] (H-[NMeY][Aib]EGTFISDYSIALDR[Aib]HQ[Aib]NFVNWLLAK([AEEA-AEEA-γGlu-γGlu-C18 diacid])R-NH2)
solubility ([1]; pH 7.4): ≥ 15 mg/mL
solubility ([1]; pH 7.4, aqueous buffer): ≥ 30 mg/mL
fraction unbound [2]: 0.0011
fraction unbound [3]: 0.0005

CC[C@H](C)[C@H](NC(=O)[C@H](CO)NC(=O)[C@H](Cc1ccc(O)cc1)NC(=O)[C@H](CC(=O)O)NC(=O)[C@H](CO)NC(=O)[C@@H](NC(=O)[C@H](Cc1ccccc1)NC(=O)[C@@H](NC(=O)CNC(=O)[C@H](CCC(=O)O)NC(=O)C(C)(C)NC(=O)[C@H](Cc1ccc(O)cc1)NC)[C@@H](C)O)[C@@H](C)CC)C(=O)N[C@@H](C)C(=O)N[C@@H](CC(C)C)C(=O)N[C@@H](CC(=O)O)C(=O)N[C@@H](CCCNC(=N)N)C(=O)NC(C)(C)C(=O)N[C@@H](C)C(=O)N[C@@H](CCC(N)=O)C(=O)NC(C)(C)C(=O)N[C@@H](CCCCNC(=O)COCCOCCNC(=O)COCCOCCNC(=O)CC[C@H](NC(=O)CC[C@H](NC(=O)CCCCCCCCCCCCCCCC(=O)O)C(=O)O)C(=O)O)C(=O)N[C@@H](Cc1ccccc1)C(=O)N[C@H](C(=O)N[C@@H](CC(N)=O)C(=O)N[C@@H](Cc1c[nH]c2ccccc12)C(=O)N[C@@H](CC(C)C)C(=O)N[C@@H](CC(C)C)C(=O)N[C@@H](C)C(=O)N[C@@H](CCC(N)=O)C(=O)N[C@@H](CCCNC(=N)N)C(=O)NCC(=O)O)C(C)C [Compound 36] (H-[NMeY][Aib]EGTFISDYSIALDR[Aib]AQ[Aib]K([AEEA-AEEA-γGlu-γGlu-C17 diacid])FVNWLLAQRG-OH)
solubility ([1]; pH 7.4): ≥ 15 mg/mL
solubility ([1]; pH 7.4, aqueous buffer): ≥ 60 mg/mL
fraction unbound [2]: < 0.002
fraction unbound [3]: 0.0034

CC[C@H](C)[C@H](NC(=O)[C@H](CO)NC(=O)[C@H](Cc1ccc(O)cc1)NC(=O)[C@H](CC(=O)O)NC(=O)[C@H](CO)NC(=O)[C@@H](NC(=O)[C@H](Cc1ccccc1)NC(=O)[C@@H](NC(=O)CNC(=O)[C@H](CCC(=O)O)NC(=O)C(C)(C)NC(=O)[C@H](Cc1ccc(O)cc1)NC)[C@@H](C)O)[C@@H](C)CC)C(=O)N[C@@H](C)C(=O)N[C@@H](CC(C)C)C(=O)N[C@@H](CC(=O)O)C(=O)N[C@@H](CCCNC(=N)N)C(=O)NC(C)(C)C(=O)N[C@@H](C)C(=O)N[C@@H](CCC(N)=O)C(=O)NC(C)(C)C(=O)N[C@@H](CCCCNC(=O)COCCOCCNC(=O)COCCOCCNC(=O)CC[C@H](NC(=O)CC[C@H](NC(=O)CCCCCCCCCCCCCCCCC(=O)O)C(=O)O)C(=O)O)C(=O)N[C@@H](Cc1ccccc1)C(=O)N[C@H](C(=O)N[C@@H](CC(N)=O)C(=O)N[C@@H](Cc1c[nH]c2ccccc12)C(=O)N[C@@H](CC(C)C)C(=O)N[C@@H](CC(C)C)C(=O)N[C@@H](C)C(=O)N[C@@H](CCC(N)=O)C(=O)N[C@@H](CCCNC(=N)N)C(=O)NCC(=O)O)C(C)C [Compound 37] (H-[NMeY][Aib]EGTFISDYSIALDR[Aib]AQ[Aib]K([AEEA-AEEA-γGlu-γGlu-C18 diacid])FVNWLLAQRG-OH)
solubility ([1]; pH 7.4): ≥ 15 mg/mL
solubility ([1]; pH 7.4, aqueous buffer): ≥ 30 mg/mL
fraction unbound [2]: 0.001
fraction unbound [3]: 0.0012

CC[C@H](C)[C@H](NC(=O)[C@H](CO)NC(=O)[C@H](Cc1ccc(O)cc1)NC(=O)[C@H](CC(=O)O)NC(=O)[C@H](CO)NC(=O)[C@@H](NC(=O)[C@H](Cc1ccccc1)NC(=O)[C@@H](NC(=O)CNC(=O)[C@H](CCC(=O)O)NC(=O)C(C)(C)NC(=O)[C@H](Cc1ccc(O)cc1)NC)[C@@H](C)O)[C@@H](C)CC)C(=O)N[C@@H](C)C(=O)N[C@@H](CC(C)C)C(=O)N[C@@H](CC(=O)O)C(=O)N[C@@H](CCCNC(=N)N)C(=O)NC(C)(C)C(=O)N[C@@H](C)C(=O)N[C@@H](CCC(N)=O)C(=O)NC(C)(C)C(=O)N[C@@H](CCCCNC(=O)COCCOCCNC(=O)COCCOCCNC(=O)CC[C@H](NC(=O)CC[C@H](NC(=O)CCCCCCCCCCCCCCCCCCC(=O)O)C(=O)O)C(=O)O)C(=O)N[C@@H](Cc1ccccc1)C(=O)N[C@H](C(=O)N[C@@H](CC(N)=O)C(=O)N[C@@H](Cc1c[nH]c2ccccc12)C(=O)N[C@@H](CC(C)C)C(=O)N[C@@H](CC(C)C)C(=O)N[C@@H](C)C(=O)N[C@@H](CCC(N)=O)C(=O)N[C@@H](CCCCN)C(=O)NCC(=O)O)C(C)C [Compound 39] (H-[NMeY][Aib]EGTFISDYSIALDR[Aib]AQ[Aib]K([AEEA-AEEA-γGlu-γGlu-C20 diacid])FVNWLLAQKG-OH)
solubility ([1]; pH 7.4): ≥ 15 mg/mL
solubility ([1]; pH 7.4, aqueous buffer): ≥ 30 mg/mL
fraction unbound [2]: 0.0112
fraction unbound [3]: 0.0015
